Laboratory results as given in patent US7056728B2, “Compositions and methods for use thereof in modifying the genomes of microorganisms” (priority 2000, dated 2006).

Tests used:
[1] = tested on: S. pneumoniae A66.1 Xen 10; design: species or system Streptococcus pneumoniae; conditions: in vivo
Protocol: Thus, the strains HUSTMBIG, A66.1, EF3030 and 140301 were made bioluminescent and tested in both mouse lung and nasopharyngeal models. Briefly, exponential cultures of S. pneumoniae grown at 37° C. in BHI were pelleted and then resuspended in fresh BHI broth. Bacterial concentrations were estimated spectrophotometrically by absorbance at 600 nm and adjusted to approximately […] by dilution BHI. Cell numbers were verified by plating dilutions of inoculum onto BHI agar.
Pneumococci were introduced into the lungs of the mice by either direct intratracheal inoculation, or by intranasal administration. The animals were anesthetized with ketamine (100 mg/ml) and xylazine (20 mg/ml), mixed at a 4:1 ratio v/v just before use. The anesthesia mixture was injected intramuscularly into the right hamstring muscle at a dose of 100 mg ketamine/kg of body weight. After anesthesia was established, the mice were inoculated with approximately 10^6 CFU in a total volume of 20 μl, using a 25 ga. Ball-tipped gavage needle. Mice were held in vertical suspension for 10 minutes after inoculation to facilitate deep penetration of the inoculum. Alternatively, mice were infected intranasally with approximately 10^6 CFU by placing 20 μl of bacterial suspension on the nares and allowing the mice to inhale the inoculum. In the antibiotic studies, mice were treated with amoxicillin at 1 mg/kg or 5 mg/kg, given subcutaneously at t=0, 18, 24, and 42 hours post-infection.
Mice were imaged for a maximum of 5 min at a number of time points post-infection using an IVIS™ CCD camera (Xenogen Corporation, Alameda, Calif.). Total photon emission from selected and defined areas within the images of each mouse was quantified using the LivingImage™ software package (Xenogen Corporation, Alameda, Calif.). The photon signal from the thorax was quantified from the ventral image of each mouse.
Twelve mice were inoculated with approximately 10^6 CFU of S. pneumoniae A66.1 Xen 10. The mice were divided into three groups of four animals and two of these groups were treated with an amoxicillin regime at 1 or 5 mg/kg, the third group of animals remaining untreated as controls.
After the final imaging time point, mice were sacrificed and the infected lung tissue was surgically removed and weighed. Both lungs were homogenized together in 500 μl BHI in a loose Dounce homogenizer. The suspension was serially diluted in BHI and plated in duplicate onto BHI agar. Bacterial burden was estimated from the number of CFU/g of lung tissue. The bacterial load present in the nasal passage of the mice was obtained by washing approximately 0.25 ml of saline through the trachea and collecting the first 0.1 ml of nasal wash as it exited the nares, as described (Lipsitch et al. (2000) Vaccine 18:2895–2901; Wu et al. (1997) Microb. Pathog. 23:127–137).

[2] = tested on: MRSA strain I6; experiment: antibiotic resistance of MRSA strain; assay type: cell-based, S. aureus
[3] = tested on: S. pneumoniae pAUL-A Tn4001 luxABCDE km^R; experiment: growth and colony formation of S. pneumoniae transformants in the presence of kanamycin; assay type: cell-based, Streptococcus pneumoniae; conditions: 10^3 CFUs plated on chocolate agar, increasing kanamycin 400 to 1000 μg/ml; approximately 1000 CFUs without kanamycin

CC1(C)S[C@@H]2[C@H](NC(=O)[C@H](N)c3ccc(O)cc3)C(=O)N2[C@H]1C(=O)O [amoxicillin]
appearance of treated mice [1]: appeared relatively healthy | highest number of pneumococci isolated from a treated animal (lung tissue) [1]: 300 CFU/g tissue | treated animals showing no bacteria present in lung tissue [1]: four of the eight | animals with a bioluminescent signal ([1]; sc, 1 mg/kg): Three of the four | animals with a significant bioluminescent signal ([1]; sc, 5 mg/kg): None of the four

O=C(N[C@H](CO)[C@H](O)c1ccc([N+](=O)[O-])cc1)C(Cl)Cl [chloremphenicol]
resistance of strain to antibiotics tested [2]: resistant to all the antibiotics tested except for chloremphenicol

NC[C@H]1O[C@H](O[C@H]2[C@H](O)[C@@H](O[C@H]3O[C@H](CO)[C@@H](O)[C@H](N)[C@H]3O)[C@H](N)C[C@@H]2N)[C@H](O)[C@@H](O)[C@@H]1O [kanamycin]
number of colonies (average) [3]: 56 to 35
